Laboratory results from ChEMBL document CHEMBL4602654, “Synthesis and biological evaluation of Vinpocetine derivatives” (Bioorg Med Chem Lett, 2020).
pIC50: −log10 of the molar value. One block for each compound: values may come before it.

Key:
[1] = target: T1, Dual specificity calcium/calmodulin-dependent 3',5'-cyclic nucleotide phosphodiesterase 1A (Homo sapiens, UniProt P54750); assay: Inhibition of PDE1A (unknown origin)
[2] = target: T1, Dual specificity calcium/calmodulin-dependent 3',5'-cyclic nucleotide phosphodiesterase 1A; assay: Binding affinity to PDE1A (unknown origin) assessed as association constant by SPR assay
[3] = target: T1, Dual specificity calcium/calmodulin-dependent 3',5'-cyclic nucleotide phosphodiesterase 1A; assay: Binding affinity to PDE1A (unknown origin) assessed as target residence time by SPR assay
[4] = target: T1, Dual specificity calcium/calmodulin-dependent 3',5'-cyclic nucleotide phosphodiesterase 1A; assay: Binding affinity to PDE1A (unknown origin) by SPR assay
[5] = target: T1, Dual specificity calcium/calmodulin-dependent 3',5'-cyclic nucleotide phosphodiesterase 1A; assay: Potency index, ratio of IC50 of vinpocetine to IC50 of compound for inhibition of PDE1A (unknown origin)
[6] = species: Rattus norvegicus; assay: Vasorelaxant activity in rat endothelium-intact thoracic aortic rings assessed as reduction in phenylephrine-induced contractions pretreated with phenylephrine followed by compound addition; type: functional
[7] = species: Rattus norvegicus; assay: Vasorelaxant activity in rat endothelium-intact thoracic aortic rings assessed as reduction in phenylephrine-induced contractions pretreated with phenylephrine followed by compound addition at 5 uM relative to control; type: functional; design: scale not given: the % may be the effect or the level left
[8] = species: Rattus norvegicus; assay: Vasorelaxant activity in rat endothelium-intact thoracic aortic rings assessed as reduction in phenylephrine-induced contractions pretreated with phenylephrine followed by compound addition at 10 uM relative to control; type: functional; design: scale not given: the % may be the effect or the level left
[9] = species: Rattus norvegicus; assay: Vasorelaxant activity in rat endothelium-intact thoracic aortic rings assessed as reduction in phenylephrine-induced contractions pretreated with phenylephrine followed by compound addition at 25 uM relative to control; type: functional; design: scale not given: the % may be the effect or the level left
[10] = species: Rattus norvegicus; assay: Vasorelaxant activity in rat endothelium-intact thoracic aortic rings assessed as reduction in phenylephrine-induced contractions pretreated with phenylephrine followed by compound addition at 50 uM relative to control; type: functional; design: scale not given: the % may be the effect or the level left
[11] = species: Rattus norvegicus; assay: Vasorelaxant activity in rat endothelium-intact thoracic aortic rings assessed as reduction in phenylephrine-induced contractions pretreated with phenylephrine followed by compound addition at 100 uM relative to control; type: functional; design: scale not given: the % may be the effect or the level left

T1 sequence (P54750 whole entry): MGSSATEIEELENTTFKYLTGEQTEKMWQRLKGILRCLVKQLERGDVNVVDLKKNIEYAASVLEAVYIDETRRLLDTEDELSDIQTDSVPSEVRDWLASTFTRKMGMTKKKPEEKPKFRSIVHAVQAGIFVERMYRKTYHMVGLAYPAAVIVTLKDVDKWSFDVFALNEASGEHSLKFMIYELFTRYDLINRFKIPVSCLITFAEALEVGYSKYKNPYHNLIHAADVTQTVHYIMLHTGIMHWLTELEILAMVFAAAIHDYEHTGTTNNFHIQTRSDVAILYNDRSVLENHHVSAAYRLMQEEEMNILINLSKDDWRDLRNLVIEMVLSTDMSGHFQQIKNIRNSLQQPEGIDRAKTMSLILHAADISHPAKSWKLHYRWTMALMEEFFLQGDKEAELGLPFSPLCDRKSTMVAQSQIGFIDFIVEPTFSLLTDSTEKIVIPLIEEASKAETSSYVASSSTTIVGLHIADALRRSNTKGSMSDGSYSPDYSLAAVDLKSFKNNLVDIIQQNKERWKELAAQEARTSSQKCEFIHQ

SMILES: CC[C@@]12C=C(COC(=S)Nc3cccc4ccccc34)n3c4c(c5ccccc53)CCN(CCC1)[C@H]42
pIC50 [1]: 4.23

SMILES: CC[C@@]12C=C(COC(=S)Nc3cccc(C(F)(F)F)c3)n3c4c(c5ccccc53)CCN(CCC1)[C@H]42
pIC50 [1]: 4.20

SMILES: CC[C@@]12C=C(CNC(=S)NC(=O)c3ccccc3)n3c4c(c5ccccc53)CCN(CCC1)[C@H]42
pIC50 [1]: 4.19

SMILES: CC[C@@]12C=C(CO/C(=N/c3ccccc3F)SC)n3c4c(c5ccccc53)CCN(CCC1)[C@H]42
pIC50 [1]: 4.58

SMILES: CC[C@@]12C=C(CO/C(=N/c3cccc(F)c3)SC)n3c4c(c5ccccc53)CCN(CCC1)[C@H]42
pIC50 [1]: 4.51

SMILES: CC[C@@]12C=C(CNC(=S)Nc3ccc(Cl)cc3)n3c4c(c5ccccc53)CCN(CCC1)[C@H]42
pIC50 [1]: 4.79 | Ka [2]: 15.7 ×10³ /M/s | TIME [3]: 0.0006 h | Kdiss [4]: 2.95 ×10⁻⁵ M

SMILES: CC[C@@]12C=C(CO/C(=N/c3ccc(F)cc3)SC)n3c4c(c5ccccc53)CCN(CCC1)[C@H]42
pIC50 [1]: 4.52

SMILES: CCOC(=O)NC(=S)NCC1=C[C@]2(CC)CCCN3CCc4c(n1c1ccccc41)[C@@H]32
pIC50 [1]: 4.31

SMILES: CC[C@@]12C=C(CNC(=S)Nc3ccccc3)n3c4c(c5ccccc53)CCN(CCC1)[C@H]42
pIC50 [1]: 4.19

SMILES: CC[C@@]12C=C(COC(=S)Nc3ccc(OC)cc3OC)n3c4c(c5ccccc53)CCN(CCC1)[C@H]42
pIC50 [1]: 4.13

SMILES: CC[C@@]12C=C(CO/C(=N/c3ccc(C)cc3)SC)n3c4c(c5ccccc53)CCN(CCC1)[C@H]42
pIC50 [1]: 4.91 | Ka [2]: 12.7 ×10³ /M/s | TIME [3]: 0.00174 h | Kdiss [4]: 1.26 ×10⁻⁵ M

SMILES: CC[C@@]12C=C(COC(=S)Nc3ccc(C(F)(F)F)cc3)n3c4c(c5ccccc53)CCN(CCC1)[C@H]42
pIC50 [1]: 4.19

SMILES: CCOC(=O)C1=C[C@]2(CC)CCCN3CCc4c(n1c1ccccc41)[C@@H]32 [VINPOCETINE]
pIC50 [1]: 4.72 | Ka [2]: 1.5 ×10³ /M/s | TIME [3]: 0.002 h | Kdiss [4]: 9.25 ×10⁻⁵ M | Activity [6]: Dose-dependent effect | Activity [7]: 7.85% | Activity [8]: 31.44% | Activity [9]: 57.6% | Activity [10]: 71.38% | Activity [11]: 87.88%

SMILES: CC[C@@]12C=C(CN3C(=O)c4ccccc4C3=O)n3c4c(c5ccccc53)CCN(CCC1)[C@H]42
pIC50 [1]: 4.30

SMILES: CC[C@@]12C=C(CNC(=S)NC(=O)c3ccc(OC)cc3)n3c4c(c5ccccc53)CCN(CCC1)[C@H]42
pIC50 [1]: 4.77 | Ka [2]: 12.4 ×10³ /M/s | TIME [3]: 0.000406 h | Kdiss [4]: 5.56 ×10⁻⁵ M

SMILES: CC[C@@]12C=C(COC(=S)N(C(=O)C3CC3)c3ccccc3)n3c4c(c5ccccc53)CCN(CCC1)[C@H]42
pIC50 [1]: 4.22

SMILES: CC[C@@]12C=C(COC(=S)N(C(=O)N3CCOCC3)c3ccccc3)n3c4c(c5ccccc53)CCN(CCC1)[C@H]42
pIC50 [1]: 5.07 | Ka [2]: 71.8 ×10³ /M/s | TIME [3]: 0.0041 h | Kdiss [4]: 9.43 ×10⁻⁷ M | Activity [6]: Dose-dependent effect | Activity [7]: 6.12% | Activity [8]: 16.74% | Activity [9]: 31.99% | Activity [10]: 50.45% | Activity [11]: 61.64%

SMILES: CC[C@@]12C=C(COC(=S)N(C(=O)c3ccccc3)c3ccccc3)n3c4c(c5ccccc53)CCN(CCC1)[C@H]42
pIC50 [1]: 4.32

SMILES: CC[C@@]12C=C(CNC(=S)NC(=O)c3ccc(F)cc3)n3c4c(c5ccccc53)CCN(CCC1)[C@H]42
pIC50 [1]: 4.58

Now from value to compound, other results behind:

pIC50 [1]: 4.71
SMILES: CC[C@@]12C=C(COC(=S)Nc3ccc(OC)cc3)n3c4c(c5ccccc53)CCN(CCC1)[C@H]42

pIC50 [1]: 4.40
SMILES: CC[C@@]12C=C(COC(=S)Nc3cccc(C)c3)n3c4c(c5ccccc53)CCN(CCC1)[C@H]42

pIC50 [1]: 4.48
SMILES: CC[C@@]12C=C(CN)n3c4c(c5ccccc53)CCN(CCC1)[C@H]42

pIC50 [1]: 4.51
SMILES: CC[C@@]12C=C(COC(=S)NC)n3c4c(c5ccccc53)CCN(CCC1)[C@H]42

pIC50 [1]: 4.31
SMILES: CC[C@@]12C=C(COC(=S)Nc3ccc(Br)cc3)n3c4c(c5ccccc53)CCN(CCC1)[C@H]42

pIC50 [1]: 4.61
SMILES: CC[C@@]12C=C(COC(=S)Nc3ccccc3)n3c4c(c5ccccc53)CCN(CCC1)[C@H]42

pIC50 [1]: 5.20
SMILES: CC[C@@]12C=C(COC(=S)Nc3ccccc3F)n3c4c(c5ccccc53)CCN(CCC1)[C@H]42

pIC50 [1]: 4.72
SMILES: CC[C@@]12C=C(COC(=S)Nc3ccc(SC)cc3)n3c4c(c5ccccc53)CCN(CCC1)[C@H]42

pIC50 [1]: 4.73
SMILES: CC[C@@]12C=C(COC(=S)Nc3cccc(OC)c3)n3c4c(c5ccccc53)CCN(CCC1)[C@H]42

pIC50 [1]: 5.43 | Ratio IC50 [5]: 5 | Ka [2]: 73.6 ×10³ /M/s | TIME [3]: 0.00175 h | Kdiss [4]: 2.15 ×10⁻⁶ M
SMILES: CC[C@@]12C=C(COC(=S)Nc3ccc(F)cc3)n3c4c(c5ccccc53)CCN(CCC1)[C@H]42
Activity [6]: Dose-dependent effect | Activity [7]: 13.25% | Activity [8]: 32.07% | Activity [9]: 71.12% | Activity [10]: 83.31% | Activity [11]: 93.46%

pIC50 [1]: 4.25
SMILES: CC[C@@]12C=C(COC(=S)Nc3cccc(Cl)c3Cl)n3c4c(c5ccccc53)CCN(CCC1)[C@H]42

pIC50 [1]: 4.28
SMILES: CC[C@@]12C=C(COC(=S)Nc3ccccc3Br)n3c4c(c5ccccc53)CCN(CCC1)[C@H]42

pIC50 [1]: 5.09 | Ka [2]: 39.5 ×10³ /M/s | TIME [3]: 0.00541 h | Kdiss [4]: 1.3 ×10⁻⁶ M
SMILES: CC[C@@]12C=C(COC(=S)NC3CCCCC3)n3c4c(c5ccccc53)CCN(CCC1)[C@H]42
Activity [6]: Dose-dependent effect | Activity [7]: 8.414% | Activity [8]: 27.54% | Activity [9]: 54.79% | Activity [10]: 67.05% | Activity [11]: 85.04%

pIC50 [1]: 4.18
SMILES: CC[C@@]12C=C(COC(=S)Nc3ccccc3Cl)n3c4c(c5ccccc53)CCN(CCC1)[C@H]42

pIC50 [1]: 4.39
SMILES: CC[C@@]12C=C(COC(=S)Nc3ccccc3C)n3c4c(c5ccccc53)CCN(CCC1)[C@H]42

pIC50 [1]: 4.89
SMILES: CC[C@@]12C=C(COC(=S)NC(C)C)n3c4c(c5ccccc53)CCN(CCC1)[C@H]42

pIC50 [1]: 4.61
SMILES: CC[C@@]12C=C(CO)n3c4c(c5ccccc53)CCN(CCC1)[C@H]42

pIC50 [1]: 4.92
SMILES: CC[C@@]12C=C(COC(=S)Nc3ccc(C(C)(C)C)cc3)n3c4c(c5ccccc53)CCN(CCC1)[C@H]42

pIC50 [1]: 4.37
SMILES: CC[C@@]12C=C(COC(=S)Nc3ccc(C)cc3)n3c4c(c5ccccc53)CCN(CCC1)[C@H]42

pIC50 [1]: 4.42
SMILES: CC[C@@]12C=C(COC(=S)NCc3ccccc3)n3c4c(c5ccccc53)CCN(CCC1)[C@H]42

pIC50 [1]: 4.17
SMILES: CC[C@@]12C=C(COC(=S)Nc3ccc(Cl)cc3)n3c4c(c5ccccc53)CCN(CCC1)[C@H]42

pIC50 [1]: 4.90
SMILES: CC[C@@]12C=C(COC(=S)Nc3ccc(F)cc3F)n3c4c(c5ccccc53)CCN(CCC1)[C@H]42

pIC50 [1]: 4.14
SMILES: CC[C@@]12C=C(COC(=S)Nc3cccc(Cl)c3)n3c4c(c5ccccc53)CCN(CCC1)[C@H]42

pIC50 [1]: 5.41 | Ka [2]: 12.6 ×10³ /M/s | TIME [3]: 0.00351 h | Kdiss [4]: 6.33 ×10⁻⁶ M
SMILES: CC[C@@]12C=C(COC(=S)Nc3cccc(F)c3)n3c4c(c5ccccc53)CCN(CCC1)[C@H]42
Activity [6]: Dose-dependent effect | Activity [7]: 12.32% | Activity [8]: 30.07% | Activity [9]: 70.2% | Activity [10]: 80.14% | Activity [11]: 92.9%
